Measured values from PubChem BioAssay (NCI).
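A five-concentration, 48-hour dose response in 96-well plates underlies each endpoint, interpolated linearly between surrounding concentrations. GI50: concentration for 50% inhibition of growth. TGI: total growth inhibition.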

Tests used:
Test in all cases: NCI anticancer screen, dose series, 48 h
[1] = tested on: RXF 393 renal
[2] = tested on: PC-3 prostate
[3] = tested on: UACC-62 melanoma
[4] = tested on: HCT-15 colon
[5] = tested on: UACC-257 melanoma
[6] = tested on: A498 renal
[7] = tested on: MOLT-4 leukemia
[8] = tested on: OVCAR-8 ovarian
[9] = tested on: HOP-62 NSCLC
[10] = tested on: T-47D breast

SMILES	TGI [1]	TGI [2]	TGI [3]	TGI [4]	TGI [5]	TGI [6]	TGI [7]	TGI [8]	TGI [9]	TGI [10]	GI50 [10]	GI50 [6]	GI50 [7]	GI50 [1]	GI50 [2]	GI50 [3]	GI50 [8]	GI50 [4]	GI50 [5]
Nn1c(CCCCCCCCc2nnc(COc3c(O)ccc4ccccc34)n2N)nnc1COc1c(O)ccc2ccccc12	> 100 µM	> 100 µM	> 100 µM	> 100 µM	> 100 µM	> 100 µM	> 100 µM	–	–	–	–	–	–	–	–	–	–	–	–
C/C(=N/NC(N)=S)c1ccc2ccccc2c1	81.8 µM	–	28.6 µM	> 100 µM	> 100 µM	> 100 µM	> 100 µM	> 100 µM	> 100 µM	–	–	–	–	–	–	–	–	–	–
Nc1nn2c(C(Br)Br)cc(C(Br)Br)nc2c1[N+](=O)[O-]	4.35 µM	2.73 µM	4.06 µM	2.34 µM	3.11 µM	4.72 µM	1.21 µM	–	–	5.27 µM	–	–	–	–	–	–	–	–	–
COc1ccc(-c2cc(=O)c3cc4c(cc3[nH]2)OCO4)c(OC)c1OC	> 100 µM	–	> 100 µM	> 100 µM	–	–	> 100 µM	> 100 µM	> 100 µM	–	–	–	–	–	–	–	–	–	–
O=C1CCC(=Nc2ccc(Cl)cc2)N1C(=O)COc1ccc(OCC(=O)N2C(=O)CSC2=Nc2ccc(Cl)cc2)cc1	> 100 µM	> 100 µM	> 100 µM	> 100 µM	> 100 µM	> 100 µM	–	> 100 µM	> 100 µM	> 100 µM	–	–	–	–	–	–	–	–	–
COP(=O)(O)/C=C/C(NC(=O)C(Cl)(Cl)Cl)c1ccccc1 (stereo not given)	> 100 µM	> 100 µM	> 100 µM	> 100 µM	> 100 µM	> 100 µM	> 100 µM	> 100 µM	> 100 µM	> 100 µM	–	–	–	–	–	–	–	–	–
CCCCCCCCCC[C@H](O)[C@H]1CC[C@H]([C@H]2CC[C@H]([C@H](O)CC[C@H](O)CCCCCCC[C@@H](O)CC3=C[C@H](C)OC3=O)O2)O1	88 µM	> 100 µM	–	> 100 µM	> 100 µM	> 100 µM	80.1 µM	> 100 µM	–	> 100 µM	2.17 µM	89.4 µM	19.9 µM	–	–	–	–	–	–
COc1ccc(CC(CO)NC(=O)OCc2ccccc2)cc1Oc1ccc(CC(CO)NC(=O)OCc2ccccc2)cc1 (stereo not given)	–	27.1 µM	29.5 µM	> 100 µM	61.4 µM	34.9 µM	34.5 µM	–	31.8 µM	–	–	–	–	–	–	–	–	–	–
N#Cc1c(-c2ccccc2)/c(=C\Nc2ccc(Cl)cc2)c(=O)n2c1nc1ccccc12	> 100 µM	> 100 µM	–	> 100 µM	> 100 µM	> 100 µM	–	> 100 µM	> 100 µM	> 100 µM	–	–	–	–	–	–	–	–	–
CN(C)C(CN)CC1=C(CC(CN)N(C)C)CCC1 (stereo not given)	> 100 µM	–	> 100 µM	> 100 µM	> 100 µM	> 100 µM	> 100 µM	> 100 µM	> 100 µM	–	–	–	–	–	–	–	–	–	–
O=C(O)C1CC(c2ccc(F)cc2)=Nc2ccc(F)cc2S1 (stereo not given)	> 100 µM	> 100 µM	> 100 µM	> 100 µM	> 100 µM	> 100 µM	> 100 µM	> 100 µM	–	> 100 µM	–	–	–	–	–	–	–	–	–
CCNC(=O)Nc1ccccn1	> 100 µM	> 100 µM	> 100 µM	–	> 100 µM	> 100 µM	> 100 µM	> 100 µM	> 100 µM	> 100 µM	–	–	–	–	–	–	–	–	–
CCC12C[N+]3([O-])CCc4c([nH]c5ccccc45)C(C(=O)OC)(c4cc5c(cc4OC)N(C)C4C(O)(C(=O)OC)C(OC(C)=O)C6(CC)C=CCN7CCC54C76)CC(C3)C1O2 (stereo not given)	4.65 µM	–	16.2 µM	24.8 µM	35.1 µM	18 µM	3.44 µM	54.1 µM	> 100 µM	–	–	–	–	–	–	–	–	–	–
COC(=O)c1csnn1	–	–	> 100 µM	> 100 µM	> 100 µM	–	> 100 µM	> 100 µM	> 100 µM	–	–	–	–	–	–	–	–	–	–
NC(=O)C(=O)N/N=C1/c2ccccc2CC1C1(O)C(=O)Nc2c(Cl)cc(Cl)cc21 (stereo not given)	> 100 µM	–	> 100 µM	> 100 µM	> 100 µM	> 100 µM	> 100 µM	> 100 µM	> 100 µM	–	–	–	–	–	–	–	–	–	–
CCC1=CCC23C(=O)C=CC(=O)C2(C1)C(=O)c1cccc(OC)c1C3=O (stereo not given)	21 µM	28.4 µM	37.2 µM	37 µM	30.1 µM	–	17.4 µM	29.9 µM	42.9 µM	22.6 µM	–	–	–	–	–	–	–	–	–
COc1cccc(-c2cc(=O)c3c(C)cc(C)nc3[nH]2)c1	> 100 µM	> 100 µM	> 100 µM	> 45.5 µM	–	10.8 µM	> 71.9 µM	> 100 µM	> 65.1 µM	> 100 µM	–	–	–	–	–	–	–	–	–
CN(C)NC(=S)Nc1ccccc1Br	> 100 µM	> 100 µM	> 100 µM	> 100 µM	> 100 µM	> 100 µM	> 100 µM	> 100 µM	–	> 100 µM	–	–	–	–	–	–	–	–	–
CCOP(=O)(OCC)C1C(CO)OC(n2ccc(=O)[nH]c2=O)C1O (stereo not given)	> 100 µM	> 100 µM	> 100 µM	> 100 µM	> 100 µM	> 100 µM	–	> 100 µM	> 100 µM	> 100 µM	–	–	–	–	–	–	–	–	–
Oc1ccc(-c2nnc3sc(-c4ccc(F)cc4)nn23)cc1	38.2 µM	> 100 µM	> 100 µM	> 100 µM	> 100 µM	–	> 100 µM	> 100 µM	–	> 100 µM	21 µM	–	33.6 µM	15.6 µM	> 100 µM	31.8 µM	48.3 µM	> 100 µM	> 100 µM
Nc1c2ccccc2nc2c1ccc1ncccc12	98.4 µM	> 100 µM	37.8 µM	> 100 µM	> 100 µM	–	> 100 µM	> 100 µM	–	> 100 µM	–	–	–	–	–	–	–	–	–
C=C(Cl)/C(=C\Cl)CCC(Br)C(C)C (stereo not given)	> 100 µM	> 100 µM	> 100 µM	–	> 100 µM	> 100 µM	> 100 µM	–	> 100 µM	–	–	–	–	–	–	–	–	–	–
CCOC(=O)C1=C(C(C)=O)CSC(c2ccccc2)=N1	> 100 µM	–	> 100 µM	> 100 µM	> 100 µM	> 100 µM	> 100 µM	> 100 µM	–	–	–	–	–	–	–	–	–	–	–
Cc1cc(-c2nc3c(O)cccc3s2)ccc1N	> 100 µM	52.6 µM	26.7 µM	79 µM	57.6 µM	–	> 100 µM	54.4 µM	88.8 µM	> 100 µM	–	–	–	–	–	–	–	–	–
